Common to all, as to type: cell-based, human cytomegalovirus (HCMV)
In one assay the test system is RV-HG-UL56 mutants. The experiment in a line: GFP-RA, drug susceptibility profile of the virus mutants. As to conditions: fluorescence reduction assays; for BAY 38-4766 and BDCRB with the exception of the strain carrying UL56 R369M. The protocol:
(§1) HCMV Fluorescence Reduction Assay (GFP-RA)
(§2) The susceptibilities of recombinant HCMV laboratory strains expressing GFP were determined by a GFP-based fluorescence reduction assay. For standard assays, 1.5×10^4 NHDF cells/well were cultured in black 96-well plates (Greiner Bio-One, Germany) and infected with either HCMV-GFP (MOI, 0.1) or RV-HG (MOI, 0.2 to 0.5). After virus adsorption, the virus inoculum was replaced with 200 μl fresh medium. Thereafter, 100 μl medium containing the test compounds was added to wells of horizontal row G, followed by serial 3-fold dilutions up to row A. All drug concentrations were tested at least in duplicate. Wells of the horizontal row H served as the virus control. Plates were incubated at 37° C. for 7 days. The medium was replaced by 200 μl PBS, and GFP units (GFPU) were determined by a charge-coupled-device-camera-based fluorescence detector (FluoBox; Bayer Technology Services GmbH, Leverkusen, Germany), which captures 96 images simultaneously. Drug effects were calculated as a percentage of reduction in GFPU in the presence of each drug concentration compared to the GFPU determined in the absence of drug. EC50 and EC90 values (drug concentrations producing 50% and 90% reduction in GFPU) were calculated using nonlinear regression curve fit with a variable slope. GraphPad Prism 3.02 or 4.0 software (GraphPad Software Inc., La Jolla, Calif.) was used for all analyses.
The HCMV AD169-derived bacterial artificial chromosome (BAC) pHG served as the backbone for the construction of the mutant viruses. The markerless introduction of point mutations into pHG was done using a two-step recombination protocol according to the en passant method. Briefly, a recombination fragment containing the I-SceI-AphAI cassette from plasmid pEPKan-S was obtained by PCR using primers containing ˜60 bp of homology to the intended integration site in ORF UL56 of BAC pHG and ˜20 bp specific for pEPKan-S. This fragment was electroporated into Escherichia coli GS1783 that harbored the pHG BAC. […] After successful kanamycin selection, all non-HCMV sequences were removed by an intrabacterial ISceI digest and a subsequent second Red recombination, resulting in the scarless repair of the mutated UL56 gene in the background of BAC pHG. […] To reconstitute virus mutants, the recombinant BACs were transfected into permissive MRC5 cells. At least two independent virus clones per mutation were generated and evaluated.

In another assay the test system is RV-HG UL56-C325Yrev. The experiment in a line: GFP-RA, marker transfer revertant. As to conditions: Human betaherpesvirus 5. The procedure: as §1, §2
The HCMV AD169-derived bacterial artificial chromosome (BAC) pHG served as the backbone for the construction of the mutant viruses. The markerless introduction of point mutations into pHG was done using a two-step recombination protocol according to the en passant method. Briefly, a recombination fragment containing the I-SceI-AphAI cassette from plasmid pEPKan-S was obtained by PCR using primers containing ˜60 bp of homology to the intended integration site in ORF UL56 of BAC pHG and ˜20 bp specific for pEPKan-S. This fragment was electroporated into Escherichia coli GS1783 that harbored the pHG BAC. […] After successful kanamycin selection, all non-HCMV sequences were removed by an intrabacterial ISceI digest and a subsequent second Red recombination, resulting in the scarless repair of the mutated UL56 gene in the background of BAC pHG. The integrity of the generated BACs was confirmed by restriction enzyme digestion and sequencing. To reconstitute virus mutants, the recombinant BACs were transfected into permissive MRC5 cells. At least two independent virus clones per mutation were generated and evaluated.

A further assay concerns HCMV strain AD169. As to the kind of experiment: HCMV cytopathic effect reduction assay (CPE-RA). As to conditions: Human betaherpesvirus 5, mean ± SD. The protocol: (§3) HCMV Cytopathic Effect Reduction Assay (CPE-RA)
(§4) CPE-RAs were performed basically as described elsewhere (HCMV replication assay). In brief, the addition of 2 μl test compound of 50, 5, 0.5, 0.05, 0.005, and 0.0005 mM DMSO stock solutions to 100 μl cell culture medium in duplicate was followed by serial 2-fold dilutions in 96-well microtiter plates. Each well was supplemented with 150 μl of either a suspension of 1×10^4 NHDF cells mixed with cell-free HCMV (multiplicity of infection (MOI), 0.03) or a suspension of 1×10^4 to 3×10^4 HCMV-infected and uninfected NHDF cells (MOI, 0.001 to 0.002). Non-infected and non-treated cells served as controls on each plate. Final compound concentrations ranged between 250 and 0.00005 μM. Plates were incubated for 6 to 7 days at 37° C. or until the virus control reached 100% CPE. A mixture containing 20% Giemsa stain (Merck) and 5% formalin solution (Merck) was added to the wells for fixation and staining. After extensive washing, plates were dried at 56° C. followed by visual evaluation using an overhead microscope (plaque magnifier; Tecnorama Zürich). Each assay was performed at least in triplicate, and standard deviations were calculated. The assay plate data were used to calculate the EC50 (CPE-RA), i.e., the concentration of drug that inhibits the CPE by 50% compared with an untreated virus-infected control.
(In general: Cytopathic effects are the visible damage that an infection or toxin causes in cultured cells.)

Assay [1] concerns HCMV AD169 mutant rAIC246-2 (UL56 R369S). The experiment in a line: CPE-RA, letermovir-selected mutant. As to conditions: for EC50: Human betaherpesvirus 5, AD169, rAIC246-2 (UL56 R369S), CPE reduction assay, mean ± SD. The protocol: as §3, §4
(§5) Drug-resistant HCMV AD169 mutants were selected by the single-step selection method or by serial passage of the virus in the presence of increasing concentration of Letermovir. Briefly, 5×10^3 AD169-infected NHDF cells/well (MOI, 0.03 PFU/cell) were seeded into the wells of 30 96-well microtiter plates. The infection was allowed to proceed under the exposure of 50 nM Letermovir (˜10×EC50) until a CPE developed in one or more of the compound-treated wells (indicative of resistant virus breakthrough). Non-infected and non-treated cells served as controls on each plate. Mutant virus amplification was accomplished after cultures achieved maximum CPE by the passage of cell-free supernatant virus in the presence of 50 nM Letermovir. The resultant Letermovir-resistant progeny virus mutants were plaque purified three times by limiting dilutions in the presence of Letermovir. The stability of resistance was tested by serially passaging plaque-purified viruses without selective pressure (8 to 10 times). The resistant phenotype of the mutants was confirmed by CPE reduction assays.

Assay [2] relates to HCMV AD169 mutant rAIC246-4 (UL56 V231L). The experiment in a line: CPE-RA, letermovir-selected mutant. The settings on record: for EC50: Human betaherpesvirus 5, AD169, rAIC246-4 (UL56 V231L), CPE reduction assay, mean ± SD. The procedure:
as §3, §4, §5

The record followed here is US20140193802A1, “IDENTIFICATION OF AN ALTERED THERAPEUTIC SUSCEPTIBILITY TO ANTI-HCMV COMPOUNDS AND OF A RESISTANCE AGAINST ANTI-HCMV COMPOUNDS” (priority 2012, published 2014).

SMILES strings stand for the structures. Where two headings read alike, the source gives them in different places.

Take `COc1cccc(N2CCN(C3=Nc4c(F)cccc4[C@H](CC(=O)O)N3c3cc(C(F)(F)F)ccc3OC)CC2)c1` [Letermovir, (S)-{8-fluoro-2-[4-(3-methoxyphenyl)-1-piperazinyl]-3-[2-methoxy-5-(trifluoromethyl)phenyl]-3,4-dihydro-4-quinazolinyl}acetic acid]: in the assay on RV-HG-UL56 mutants, the “sensitivity of the RV-HG-UL56 mutants compared with the parental wild-type virus RV-HG” value is listed as “resistant”. Also, the concentration giving a half-maximal response (EC50) was found to be 3.9 ± 0.9 nM in the assay with RV-HG UL56-C325Yrev (RV-HG UL56-C325Yrev, fluorescence reduction assay, mean ± SD, read-out: EC50); 5.6 ± 1.6 nM in the assay on HCMV strain AD169; 370 ± 70 nM in assay [1]; 130 ± 10 nM in assay [2]. For the same compound, the “Resistance index (RI) = letermovir-EC50 mutant virus/letermovir-EC50 wild-type virus” value in assay [1] (rAIC246-2 vs AD169) stood at 66; in assay [2] (rAIC246-4 vs AD169), 23.

For the compound `Nc1nc(O)c2ncn(COC(CO)CO)c2n1` [Ganciclovir], in the assay with RV-HG-UL56 mutants, the “sensitivity of the RV-HG-UL56 mutants compared with the parental wild-type virus RV-HG” value is on record as “did not differ”. In addition, the EC50 worked out at 2830 ± 810 nM in the assay on RV-HG UL56-C325Yrev, 3400 ± 1500 nM with HCMV strain AD169, 4000 ± 900 nM in assay [1] and 4200 ± 1300 nM in assay [2].

As usually defined, the EC50 is the concentration giving half of the maximal effect.
